From article PMC11408123, “Deciphering the SAM- and metal-dependent mechanism of O-methyltransferases in cystargolide and belactosin biosynthesis: A structure–activity relationship study” (The Journal of Biological Chemistry, 2024)

What was measured:
CysG^ΔN16 [1] = molecular target: T1, CysG^ΔN16 (Kitasatospora cystarginea, UniProt A0A1W6R556); assay: HPLC-MS turnover assay, semi-quantitative; type: biochemical; conditions: 1 mM substrate, 1 mM SAM, 5 μM enzyme, 20 mM divalent metal ion, 50 mM Tris-HCl, 30 °C, 3 h
T1 construct: N-terminal truncation lacking the first 16 residues, His6-SUMO tag removed, E. coli BL21(DE3); electron density for residues 17-229

CysG^fl = molecular target: T2, CysG^fl (Kitasatospora cystarginea, UniProt A0A1W6R556); assay: HPLC-MS turnover assay, semi-quantitative; type: biochemical; conditions: 1 mM substrate, 1 mM SAM, 5 μM enzyme, 20 mM Ca2+, 50 mM Tris-HCl, 30 °C, 3 h
T2 construct: full length, codon-optimised gene, N-terminal His6-SUMO tag removed, E. coli BL21(DE3)

BelI = molecular target: T3, BelI (Streptomyces sp., UniProt A0A1W6R583); assay: HPLC-MS turnover assay, semi-quantitative; type: biochemical; conditions: 1 mM substrate, 1 mM SAM, 5 μM enzyme, 20 mM Ca2+, 50 mM Tris-HCl, 30 °C, 3 h
T3 construct: full length, codon-optimised gene, N-terminal His6-SUMO tag removed, E. coli BL21(DE3); electron density for residues 17-228

CysG^ΔN16 [2] = molecular target: T1, CysG^ΔN16; assay: X-ray crystal structure, […] Å; type: binding; conditions: with Ca2+ bound at His122-His123-Asp191; methyl donor site
CysG^ΔN16 [3] = molecular target: T4, CysG^ΔN16 (Kitasatospora cystarginea, UniProt A0A1W6R556, R22K); assay: X-ray crystal structure; type: binding; conditions: methyl donor site
T4 construct: N-terminal truncation lacking the first 16 residues, His6-SUMO tag removed, E. coli BL21(DE3); electron density for residues 17-229

In the case of `CC(C)[C@H](C(=O)O)[C@@H](O)C(=O)O` [3IPM], the “HPLC-MS turnover assay, semi-quantitative” value (shortened to “HPLC-MS turnover assay”) (CysG^ΔN16 [1]) is reported as “N-terminally truncated CysG^ΔN16 variant was active with metal ions available” and the “HPLC-MS turnover assay” value (CysG^fl) is reported as “The assay was started by the addition of 3IPM for CysG and 3SBM for BelI”.
`CCC(C)C(C(=O)O)C(O)C(=O)O` (centres unmarked) [3SBM] was tested, and the “HPLC-MS turnover assay” value (BelI) was “The assay was started by the addition of 3IPM for CysG and 3SBM for BelI”.
For `Nc1ncnc2c1ncn2[C@@H]1O[C@H](CSCC[C@H](N)C(=O)O)[C@@H](O)[C@H]1O` [SAH], the “X-ray crystal structure, 1.5 Å” value (CysG^ΔN16 [2]) was “crystal structures of CysG^ΔN16 in complex with S-adenosylhomocysteine (SAH)”.
For `C[S+](CC[C@H](N)C(=O)O)C[C@H]1O[C@@H](n2cnc3c(N)ncnc32)[C@H](O)[C@@H]1O` (some centres unmarked) [SAM], the X-ray crystal structure (CysG^ΔN16 [3]) was “CysG^ΔN16-R22K variant (PDB ID: 9FCY) maintains SAM coordination”.
